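Cultured in 96-well plates, cells were exposed to test compound for 48 hours across five concentrations. GI50 is the concentration that inhibits growth by half. At the TGI there is no net growth.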
Key:
Test in all cases: inhibition of tumour cell growth, NCI panel, 48 h; in the data active = GI50 below about 0.43 µM; inactive = the rest
ACHN renal = system: ACHN renal
MDA-MB-231 breast = system: MDA-MB-231 breast
COLO 205 colon = system: COLO 205 colon
HT29 colon = system: HT29 colon
SF-295 CNS = system: SF-295 CNS
EKVX NSCLC = system: EKVX NSCLC
OVCAR-8 ovarian = system: OVCAR-8 ovarian
CAKI-1 renal = system: CAKI-1 renal
SK-OV-3 ovarian = system: SK-OV-3 ovarian
SK-MEL-5 melanoma = system: SK-MEL-5 melanoma
BT-549 breast = system: BT-549 breast
SF-268 CNS = system: SF-268 CNS
T-47D breast = system: T-47D breast
OVCAR-5 ovarian = system: OVCAR-5 ovarian
MDA-MB-435 = system: MDA-MB-435
786-0 renal = system: 786-0 renal
SK-MEL-28 melanoma = system: SK-MEL-28 melanoma
PC-3 prostate = system: PC-3 prostate
MCF7 breast = system: MCF7 breast
SF-539 CNS = system: SF-539 CNS
RXF 393 renal = system: RXF 393 renal
NCI-H23 lung = system: NCI-H23 lung
DU-145 prostate = system: DU-145 prostate
NCI-H460 lung = system: NCI-H460 lung
HCC-2998 colon = system: HCC-2998 colon
HL-60(TB) leukemia = system: HL-60(TB) leukemia
SK-MEL-2 melanoma = system: SK-MEL-2 melanoma
NCI-H522 lung = system: NCI-H522 lung
U251 CNS = system: U251 CNS
M14 melanoma = system: M14 melanoma
SN12C renal = system: SN12C renal
IGROV1 ovarian = system: IGROV1 ovarian
HCT-15 colon = system: HCT-15 colon
NCI-H226 lung = system: NCI-H226 lung
RPMI-8226 leukemia = system: RPMI-8226 leukemia
TK-10 renal = system: TK-10 renal
SW-620 colon = system: SW-620 colon
UACC-62 melanoma = system: UACC-62 melanoma
UO-31 renal = system: UO-31 renal
A549 NSCLC = system: A549 NSCLC
UACC-257 melanoma = system: UACC-257 melanoma
SNB-19 CNS = system: SNB-19 CNS
HOP-92 NSCLC = system: HOP-92 NSCLC
OVCAR-4 ovarian = system: OVCAR-4 ovarian
A498 renal = system: A498 renal
SNB-75 CNS = system: SNB-75 CNS
KM12 colon = system: KM12 colon
CCRF-CEM leukemia = system: CCRF-CEM leukemia
HS 578T breast = system: HS 578T breast
HCT-116 colon = system: HCT-116 colon
NCI/ADR-RES ovarian = system: NCI/ADR-RES ovarian
K-562 leukemia = system: K-562 leukemia
HOP-62 NSCLC = system: HOP-62 NSCLC
OVCAR-3 ovarian = system: OVCAR-3 ovarian
MOLT-4 leukemia = system: MOLT-4 leukemia
LOX IMVI melanoma = system: LOX IMVI melanoma

CSc1nc(-c2ccccc2)c(C#N)c(=O)[nH]1
> 100 µM: TGI (ACHN renal) | TGI (MDA-MB-231 breast) | TGI (COLO 205 colon) | TGI (HT29 colon) | TGI (SF-295 CNS) | TGI (EKVX NSCLC) | TGI (OVCAR-8 ovarian) | TGI (CAKI-1 renal) | TGI (SK-OV-3 ovarian) | TGI (SK-MEL-5 melanoma) | TGI (BT-549 breast) | TGI (SF-268 CNS) | TGI (T-47D breast) | TGI (OVCAR-5 ovarian) | TGI (MDA-MB-435) | TGI (786-0 renal) | TGI (SK-MEL-28 melanoma) | TGI (PC-3 prostate) | TGI (MCF7 breast) | TGI (SF-539 CNS) | TGI (RXF 393 renal) | TGI (NCI-H23 lung) | TGI (DU-145 prostate) | TGI (NCI-H460 lung) | TGI (HCC-2998 colon) | TGI (HL-60(TB) leukemia) | TGI (SK-MEL-2 melanoma) | TGI (NCI-H522 lung) | TGI (U251 CNS) | TGI (M14 melanoma) | TGI (SN12C renal) | TGI (IGROV1 ovarian) | TGI (HCT-15 colon) | TGI (NCI-H226 lung) | TGI (RPMI-8226 leukemia) | TGI (TK-10 renal) | TGI (SW-620 colon) | TGI (UACC-62 melanoma) | TGI (UO-31 renal) | TGI (A549 NSCLC) | TGI (UACC-257 melanoma) | TGI (SNB-19 CNS) | TGI (HOP-92 NSCLC) | TGI (OVCAR-4 ovarian) | TGI (A498 renal) | TGI (SNB-75 CNS) | TGI (KM12 colon) | TGI (CCRF-CEM leukemia) | TGI (HS 578T breast) | TGI (HCT-116 colon) | TGI (NCI/ADR-RES ovarian) | TGI (K-562 leukemia) | TGI (HOP-62 NSCLC) | TGI (OVCAR-3 ovarian) | TGI (MOLT-4 leukemia)

O=C(NNC(=O)C1CCN(S(=O)(=O)c2ccc(-c3ccccc3)cc2)CC1)c1ccc(C(F)(F)F)cc1
34.1 µM: TGI (786-0 renal)
inactive: GI50 (ACHN renal) > 50 µM | GI50 (MDA-MB-231 breast) 1580 nM | GI50 (COLO 205 colon) > 50 µM | GI50 (HT29 colon) > 50 µM | GI50 (SF-295 CNS) > 50 µM | GI50 (EKVX NSCLC) > 50 µM | GI50 (OVCAR-8 ovarian) 22 µM | GI50 (CAKI-1 renal) > 50 µM | GI50 (SK-MEL-5 melanoma) > 50 µM | GI50 (BT-549 breast) 44.1 µM | GI50 (SF-268 CNS) > 50 µM | GI50 (T-47D breast) 3.99 µM | GI50 (OVCAR-5 ovarian) > 50 µM | GI50 (MDA-MB-435) > 50 µM | GI50 (786-0 renal) 7.21 µM | GI50 (SK-MEL-28 melanoma) > 50 µM | GI50 (PC-3 prostate) > 50 µM | GI50 (MCF7 breast) > 50 µM | GI50 (RXF 393 renal) 20.3 µM | GI50 (NCI-H23 lung) 14.1 µM | GI50 (NCI-H460 lung) > 50 µM | GI50 (HCC-2998 colon) 20.6 µM | GI50 (HL-60(TB) leukemia) > 50 µM | GI50 (SK-MEL-2 melanoma) > 50 µM | GI50 (NCI-H522 lung) > 50 µM | GI50 (U251 CNS) 11.8 µM | GI50 (M14 melanoma) 15.9 µM | GI50 (SN12C renal) 21.4 µM | GI50 (IGROV1 ovarian) > 50 µM | GI50 (HCT-15 colon) > 50 µM | GI50 (NCI-H226 lung) 14.6 µM | GI50 (TK-10 renal) 20.8 µM | GI50 (SW-620 colon) > 50 µM | GI50 (UACC-62 melanoma) > 50 µM | GI50 (UO-31 renal) > 50 µM | GI50 (A549 NSCLC) > 50 µM | GI50 (UACC-257 melanoma) > 50 µM | GI50 (SNB-19 CNS) 15.4 µM | GI50 (HOP-92 NSCLC) 2890 nM | GI50 (LOX IMVI melanoma) > 50 µM | GI50 (KM12 colon) > 50 µM | GI50 (CCRF-CEM leukemia) > 50 µM | GI50 (HS 578T breast) 38.3 µM | GI50 (HCT-116 colon) 4.77 µM | GI50 (NCI/ADR-RES ovarian) > 50 µM | GI50 (K-562 leukemia) > 50 µM | GI50 (HOP-62 NSCLC) 5.46 µM | GI50 (OVCAR-3 ovarian) > 50 µM
> 50 µM: TGI (ACHN renal) | TGI (COLO 205 colon) | TGI (HT29 colon) | TGI (SF-295 CNS) | TGI (EKVX NSCLC) | TGI (OVCAR-8 ovarian) | TGI (CAKI-1 renal) | TGI (SK-MEL-5 melanoma) | TGI (BT-549 breast) | TGI (SF-268 CNS) | TGI (T-47D breast) | TGI (OVCAR-5 ovarian) | TGI (MDA-MB-435) | TGI (SK-MEL-28 melanoma) | TGI (PC-3 prostate) | TGI (MCF7 breast) | TGI (RXF 393 renal) | TGI (NCI-H23 lung) | TGI (NCI-H460 lung) | TGI (HCC-2998 colon) | TGI (HL-60(TB) leukemia) | TGI (SK-MEL-2 melanoma) | TGI (NCI-H522 lung) | TGI (U251 CNS) | TGI (M14 melanoma) | TGI (SN12C renal) | TGI (IGROV1 ovarian) | TGI (HCT-15 colon) | TGI (NCI-H226 lung) | TGI (TK-10 renal) | TGI (SW-620 colon) | TGI (UACC-62 melanoma) | TGI (UO-31 renal) | TGI (A549 NSCLC) | TGI (UACC-257 melanoma) | TGI (SNB-19 CNS) | TGI (HOP-92 NSCLC) | TGI (LOX IMVI melanoma) | TGI (KM12 colon) | TGI (CCRF-CEM leukemia) | TGI (HS 578T breast) | TGI (NCI/ADR-RES ovarian) | TGI (K-562 leukemia) | TGI (OVCAR-3 ovarian)
16.5 µM: TGI (HOP-62 NSCLC)
13.2 µM: TGI (HCT-116 colon)
34.9 µM: TGI (MDA-MB-231 breast)

— PubChem BioAssay (NCI)
